Experimental data taken from US6429227B1, “Hydroxyeicosatetraenoate salts, compositions and methods of use in treating dry eye disorders” (Alcon Universal Ltd., priority 1999, dated 2002).
Values belong to the molecule of their own block, whether it stands above or below them.

Key:
Format in all cases: physicochemical
[1] = Stability of neat 15(S)-HETE free acid vs sodium salt, four days under ambient air, HPLC (Example 6)
Method: 15(S)-HETE free acid and 15(S)-HETE-sodium salt were stored under ambient air for four days and exposed to either a temperature of 40° C. in total darkness, or ambient temperature and 300 foot-candles of light (approximately Standard Fluorescent Room Light). Following the four day exposure, aliquots of the samples were analyzed by HPLC for percent remaining HETE and results are reported in Table 1: […]

[2] = Stability of samples dried from ethanolic stock in amber glass vials at room temperature under ambient atmosphere, HPLC (Example 7); conditions: for % Remaining: dried film
Description: Ethanolic stock solutions of 15(S)-HETE free acid and 15(S)-HETE free acid with an approximately equimolar amount of sodium hydroxide (to form the sodium salt in situ) were aliquoted to amber glass vials and dried under a stream of helium. The vials were stored at room temperature under ambient atmosphere. At various times, two vials of each were reconstituted with an aliquot of 50/50 acetonitrile/water and assayed by HPLC for 15(S)-HETE. The results are shown in Table 2 and illustrated in FIG. 1: […]

[3] = Storage stability of 15(S)-HETE-sodium salt as neat solid or as solution in absolute ethanol, HPLC (Example 8)
Method: 15(S)-HETE-sodium salt as the neat solid under argon or as solutions in absolute ethanol under ambient atmosphere were stored in amber glass vials in a −20° C. freezer or at room temperature. At various times, the samples were analyzed by HPLC for percent of initial 15(S)-HETE remaining.

% of Initial Amount Remaining ([1]; 40° C., dark): 0%
% of Initial Amount Remaining ([1]; ambient temp., 300 F-C light): 2%
% Remaining ([2]; 0 hours): 100%
% Remaining ([2]; 5 hours): 4%
% Remaining ([2]; 24 hours): 0%
% Remaining ([2]; 55 hours): 0%
% Remaining ([2]; 72 hours): 0%
SMILES: CCCCC[C@H](O)/C=C/C=C\C/C=C\C/C=C\CCCC(=O)O [15(S)-HETE-free acid, 15(S)-HETE free acid, reference compound]

% of Initial Amount Remaining ([1]; 40° C., dark): 86%
% of Initial Amount Remaining ([1]; ambient temp., 300 F-C light): 58%
% Remaining ([2]; 0 hours): 100%
% Remaining ([2]; 5 hours): 94%
% Remaining ([2]; 24 hours): 79%
% Remaining ([2]; 55 hours): 66%
% Remaining ([2]; 72 hours): 65%
% of Initial ([3]; 1 mg/mL in absolute ethanol, ambient atmosphere, room temp., 2.0 weeks): 101%
% of Initial ([3]; 1 mg/mL in absolute ethanol, ambient atmosphere, room temp., 4.4 weeks): 101%
% of Initial ([3]; 1 mg/mL in absolute ethanol, ambient atmosphere, room temp., 6.0 weeks): 101%
% of Initial ([3]; 1 mg/mL in absolute ethanol, ambient atmosphere, room temp., 8.4 weeks): 101%
% of Initial ([3]; 1 mg/mL in absolute ethanol, ambient atmosphere, −20° C. freezer, 2.0 weeks): 102%
% of Initial ([3]; 1 mg/mL in absolute ethanol, ambient atmosphere, −20° C. freezer, 4.4 weeks): 102%
% of Initial ([3]; 1 mg/mL in absolute ethanol, ambient atmosphere, −20° C. freezer, 6.0 weeks): 101%
% of Initial ([3]; 1 mg/mL in absolute ethanol, ambient atmosphere, −20° C. freezer, 8.4 weeks): 101%
% of Initial ([3]; 10 mg/mL in absolute ethanol, ambient atmosphere, room temp., 2.0 weeks): 101%
% of Initial ([3]; 10 mg/mL in absolute ethanol, ambient atmosphere, room temp., 4.4 weeks): 101%
% of Initial ([3]; 10 mg/mL in absolute ethanol, ambient atmosphere, room temp., 6.0 weeks): 101%
% of Initial ([3]; 10 mg/mL in absolute ethanol, ambient atmosphere, room temp., 8.4 weeks): 100%
% of Initial ([3]; 10 mg/mL in absolute ethanol, ambient atmosphere, −20° C. freezer, 2.0 weeks): 101%
% of Initial ([3]; 10 mg/mL in absolute ethanol, ambient atmosphere, −20° C. freezer, 4.4 weeks): 102%
% of Initial ([3]; 10 mg/mL in absolute ethanol, ambient atmosphere, −20° C. freezer, 6.0 weeks): 101%
% of Initial ([3]; 10 mg/mL in absolute ethanol, ambient atmosphere, −20° C. freezer, 8.4 weeks): 101%
% of Initial ([3]; solid under argon, room temp., 2.0 weeks): 72%
% of Initial ([3]; solid under argon, room temp., 4.4 weeks): 61%
% of Initial ([3]; solid under argon, room temp., 6.0 weeks): 42%
% of Initial ([3]; solid under argon, room temp., 8.4 weeks): 28%
% of Initial ([3]; solid under argon, −20° C. freezer, 2.0 weeks): 99%
% of Initial ([3]; solid under argon, −20° C. freezer, 4.4 weeks): 97%
% of Initial ([3]; solid under argon, −20° C. freezer, 6.0 weeks): 95%
% of Initial ([3]; solid under argon, −20° C. freezer, 8.4 weeks): 92%
SMILES: CCCCC[C@H](O)/C=C/C=C\C/C=C\C/C=C\CCCC(=O)[O-].[Na+] [15(S)-HETE-sodium salt, 5,8,11,13-Eicosatetraenoic acid, 15-hydroxy-[15S-(5Z,8Z,11Z,13E)]-sodium salt]
stability relative to the corresponding free acid (in words) ([2]; up to 72 hours): more stable than the corresponding free acid
